{"source": "patent US4840935A", "about": "“Peptide amino-alcohol derivatives containing a tetrasubstituted carbon atom, inhibiting renin and acid proteases, process for obtention and therapeutical use” (Sanofi, priority 1985, dated 1989)", "key": {"[1]": {"target": "T1, renin (Homo sapiens, UniProt P00797)", "T1 sequence (P00797 67-406)": "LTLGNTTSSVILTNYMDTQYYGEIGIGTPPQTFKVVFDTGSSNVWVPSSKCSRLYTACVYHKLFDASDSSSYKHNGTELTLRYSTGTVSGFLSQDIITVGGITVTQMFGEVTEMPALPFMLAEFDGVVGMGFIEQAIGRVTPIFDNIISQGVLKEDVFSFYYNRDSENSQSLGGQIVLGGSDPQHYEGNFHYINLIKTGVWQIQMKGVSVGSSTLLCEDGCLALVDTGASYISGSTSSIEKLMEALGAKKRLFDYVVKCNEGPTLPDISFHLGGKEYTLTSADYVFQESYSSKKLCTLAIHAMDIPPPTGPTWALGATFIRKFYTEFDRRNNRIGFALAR", "details": "cited from earlier work"}, "[2]": {"target": "T2, human plasma renin activity (PRA) (Homo sapiens, UniProt P00797)", "T2 construct": "from tissue; host or cells: human plasma pool", "T2 sequence (P00797 67-406)": "T1 sequence (P00797 67-406)", "experiment": "Inhibition of human plasma renin activity (PRA), angiotensin I released measured by radioimmunoassay", "assay_type": "biochemical", "details": "human plasma pool, 60 minutes at 37° C., phosphate buffer pH 7.4; IC50 evaluated in mol, expressed as -log IC50", "description": "The products according to the invention were studied for their therapeutic properties and especially their inhibitory action on enzymes. More particularly, the compounds were evaluated \"in vitro\" in terms of their inhibition of human plasma renin activity (PRA).\nThe method of evaluation is based on that of GUYENE (J. Clin. Endocrinol. Metab., 1976, 43, 1301). The inhibition of PRA is evaluated from a human plasma pool rich in renin ([…] of angiotensin I released per milliliter per hour), incubated for 60 minutes at 37° C., in a phosphate buffer at pH 7.4, in the presence of increasing concentrations of the product to be studied.\nHuman plasma contains the substrate angiotensinogen and the enzyme:renin. The angiotensin I released during the reaction is measured by radioimmunoassay: Plasma Renin Activity Kit from Travenol (nos. CA 533, 553). An inhibitor of the conversion enzyme, phenylmethylsulfonyl fluoride (PMSF), is added to the incubation medium. The total incubation volume is 555 microliters made up as follows:\n420 microliters of human plasma\n11 to 50 microliters of the product to be studied, at variable concentrations\n[…] microliters of phosphate buffer 5 microliters of PMSF.\nA 1N solution of acetic acid in methanol (19/1 by volume) and a 1N solution of sodium hydroxide in methanol (2/1 by volume) are prepared. In a mixture of equal volumes of these 2 solutions, a 0.001M stock solution of the product to be studied is prepared. The subsequent dilutions are then made up in the phosphate buffer.\nThe results are expressed as their logarithmic value (-log IC50)."}}, "note": "Square brackets hold non-standard residues; d marks the D form. Peptide text beside a SMILES is read from it. * marks the point of attachment. ξ: configuration not given here. Propanoyl(3-(3-pyridyl)) = O=C(CCc1cccnc1)*; His(τ-Me) = Cn1cnc(C[C@H](N)C(=O)O)c1; Sta = CC(C)C[C@H](N)[C@@H](O)CC(=O)O; NHC(Me)(CH2OH)2 = CC(CO)(CO)N*; NHC(CH2OH)3 = OCC(CO)(CO)N*; ξ3Pal = NC(Cc1cccnc1)C(=O)O; Isovaleryl = CC(C)CC(=O)*; Nle = CCCC[C@H](N)C(=O)O; Boc = CC(C)(C)OC(=O)*; X2 = OCC1(N*)CCCCC1; X1 = CC(C)(CO)N*"}
{"smiles": "CC(C)CC(=O)N[C@H](C(=O)N[C@H](C(=O)N[C@@H](CC(C)C)[C@@H](O)CC(=O)N[C@@H](C)C(=O)N[C@@H](CC(C)C)[C@@H](O)CC(=O)O)C(C)C)C(C)C", "note": "[Pepstatin, isovaleryl-L-valyl-L-valyl-statyl-L-alanyl-statin] (Isovaleryl-VV[Sta]A[Sta]-OH)", "values": [{"measurement": "affinity for renin", "setting": "[1]", "result": "low affinity for renin"}]}
{"smiles": "CCCC[C@H](NC(=O)[C@H](Cc1ccccc1)NC(=O)OC(C)(C)C)C(=O)N[C@@H](CC(C)C)[C@@H](O)CC(=O)N[C@H](C(=O)NC(C)(CO)CO)[C@@H](C)CC", "note": "[SR 43 574] (Boc-F[Nle][Sta]I-{NHC(Me)(CH2OH)2})", "values": [{"measurement": "IC50", "setting": "[2]", "result": 2.63, "unit": "nM"}]}
{"smiles": "CCCC[C@H](NC(=O)[C@H](Cc1ccccc1)NC(=O)OC(C)(C)C)C(=O)N[C@@H](Cc1ccccc1)[C@@H](O)CC(=O)N[C@H](C(=O)NC(CO)(CO)CO)[C@@H](C)CC", "note": "[SR 43 576]", "values": [{"measurement": "IC50", "setting": "[2]", "result": 3.98, "unit": "nM"}]}
{"smiles": "CCCC[C@H](NC(=O)[C@H](Cc1ccccc1)NC(=O)CCc1cccnc1)C(=O)N[C@@H](Cc1ccccc1)[C@@H](O)CC(=O)N[C@H](C(=O)NC(CO)(CO)CO)[C@@H](C)CC", "note": "[SR 43 603]", "values": [{"measurement": "IC50", "setting": "[2]", "result": 0.479, "unit": "nM"}]}
{"smiles": "CCCC[C@H](NC(=O)[C@H](Cc1ccccc1)NC(=O)OC(C)(C)C)C(=O)N[C@@H](CC(C)C)[C@@H](O)CC(=O)N[C@H](C(=O)NC(C)(C)CO)[C@@H](C)CC", "note": "[SR 43 686] (Boc-F[Nle][Sta]I-X1)", "values": [{"measurement": "IC50", "setting": "[2]", "result": 6.03, "unit": "nM"}]}
{"smiles": "CCCC[C@H](NC(=O)[C@H](Cc1ccccc1)NC(=O)CCc1cccnc1)C(=O)N[C@@H](CC(C)C)[C@@H](O)CC(=O)N[C@H](C(=O)NC(C)(CO)CO)[C@@H](C)CC", "note": "[SR 43 707] ({Propanoyl(3-(3-pyridyl))}-F[Nle][Sta]I-{NHC(Me)(CH2OH)2})", "values": [{"measurement": "IC50", "setting": "[2]", "result": 3.55, "unit": "nM"}]}
{"smiles": "CCCC[C@H](NC(=O)[C@H](Cc1ccccc1)NC(=O)OC(C)(C)C)C(=O)N[C@@H](CC1CCCCC1)[C@@H](O)CC(=O)N[C@H](C(=O)NC(C)(CO)CO)[C@@H](C)CC", "note": "[SR 43 721]", "values": [{"measurement": "IC50", "setting": "[2]", "result": 7.76, "unit": "nM"}]}
{"smiles": "CC[C@H](C)[C@H](NC(=O)C[C@H](O)[C@H](CC(C)C)NC(=O)[C@H](Cc1c[nH]cn1)NC(=O)[C@H](Cc1ccccc1)NC(=O)CCc1cccnc1)C(=O)NC(C)(CO)CO", "note": "[SR 43 737] ({Propanoyl(3-(3-pyridyl))}-FH[Sta]I-{NHC(Me)(CH2OH)2})", "values": [{"measurement": "IC50", "setting": "[2]", "result": 2.14, "unit": "nM"}]}
{"smiles": "CC[C@H](C)[C@H](NC(=O)C[C@H](O)[C@H](CC(C)C)NC(=O)C(Cc1cccnc1)NC(=O)[C@H](Cc1ccccc1)NC(=O)OC(C)(C)C)C(=O)NC(C)(CO)CO", "note": "(some centres unmarked) [SR 43 763] (Boc-F[ξ3Pal][Sta]I-{NHC(Me)(CH2OH)2})", "values": [{"measurement": "IC50", "setting": "[2]", "result": 77.6, "unit": "nM"}]}
{"smiles": "CCCC[C@H](NC(=O)[C@H](Cc1ccccc1)NC(=O)OC(C)(C)C)C(=O)N[C@@H](CC(C)C)[C@@H](O)CC(=O)N[C@H](C(=O)NC1(CO)CCCCC1)[C@@H](C)CC", "note": "[SR 43 799] (Boc-F[Nle][Sta]I-X2)", "values": [{"measurement": "IC50", "setting": "[2]", "result": 5.5, "unit": "nM"}]}
{"smiles": "CCCC[C@H](NC(=O)[C@H](Cc1ccccc1)NC(=O)OC(C)(C)C)C(=O)N[C@@H](CC(C)C)[C@@H](O)CC(=O)N[C@@H](C)C(=O)NC(C)(C)CO", "note": "[SR 43 860] (Boc-F[Nle][Sta]A-X1)", "values": [{"measurement": "IC50", "setting": "[2]", "result": 33.1, "unit": "nM"}]}
{"smiles": "CC[C@H](C)[C@H](NC(=O)C[C@H](O)[C@H](CC(C)C)NC(=O)[C@H](Cc1cn(C)cn1)NC(=O)[C@H](Cc1ccccc1)NC(=O)CCc1cccnc1)C(=O)NC(C)(C)CO", "note": "[SR 43 966] ({Propanoyl(3-(3-pyridyl))}-F[His(τ-Me)][Sta]I-X1)", "values": [{"measurement": "IC50", "setting": "[2]", "result": 19.1, "unit": "nM"}]}
{"smiles": "CCCC[C@H](NC(=O)[C@H](Cc1ccccc1)NC(=O)OC(C)(C)C)C(=O)N[C@@H](CC(C)C)[C@@H](O)CC(=O)N[C@H](C(=O)NC(CO)(CO)CO)[C@@H](C)CC", "note": "[SR 44 094] (Boc-F[Nle][Sta]I-{NHC(CH2OH)3})", "values": [{"measurement": "IC50", "setting": "[2]", "result": 18.2, "unit": "nM"}]}
{"smiles": "CC[C@H](C)[C@H](NC(=O)C[C@H](O)[C@H](CC1CCCCC1)NC(=O)[C@H](Cc1nc2ccccc2[nH]1)NC(=O)[C@H](Cc1ccccc1)NC(=O)OC(C)(C)C)C(=O)NC(C)(CO)CO", "note": "[SR 44 125]", "values": [{"measurement": "IC50", "setting": "[2]", "result": 36.3, "unit": "nM"}]}
